SMILES strings stand for the structures. Toxic doses and inconclusive results are not listed.

In this experiment the test system is L1210 leukemia ip in BDF1 mice, survival T/C. The experiment in a line: NCI In Vivo Anticancer Drug Screen. Data for tumor model L1210 Leukemia (intraperitoneal) in B6D2F1 (BDF1) mice. To be noted: endpoint: mean survival time, higher = longer survival. The procedure, abridged:
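Antitumor effect is assessed in tumor-bearing animals. Survival in the compound arm is compared with a vehicle-dosed control arm and expressed as their quotient.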

Setting [1] is: dose: 100.0 mg/kg/injection, schedule: Q04DX003 (ip), vehicle: Klucel (hydroxypropylcellulose) (HPC).
Setting [2] is: dose: 200.0 mg/kg/injection, schedule: Q04DX003 (ip), vehicle: Klucel (hydroxypropylcellulose) (HPC).
[3] abbreviates: dose: 400.0 mg/kg/injection, schedule: Q04DX003 (ip), vehicle: Klucel (hydroxypropylcellulose) (HPC).
The mark [4] stands for this setting: dose: 100.0 mg/kg/injection, schedule: Q01DX001 (ip), vehicle: saline.
Setting [5] is: dose: 200.0 mg/kg/injection, schedule: Q01DX001 (ip), vehicle: saline.
The mark [6] stands for this setting: dose: 50.0 mg/kg/injection, schedule: Q04DX002 (ip), vehicle: saline with Tween-80.
[7] abbreviates: dose: 100.0 mg/kg/injection, schedule: Q04DX002 (ip), vehicle: saline with Tween-80.
Where [8] appears, read: dose: 100.0 mg/kg/injection, schedule: Q01DX009 (ip), vehicle: saline with Tween-80.
Setting [9] is: dose: 200.0 mg/kg/injection, schedule: Q01DX009 (ip), vehicle: saline with Tween-80.
[10] abbreviates: dose: 100.0 mg/kg/injection, schedule: Q01DX009 (ip), vehicle: Klucel (hydroxypropylcellulose) (HPC).
Where [11] appears, read: dose: 200.0 mg/kg/injection, schedule: Q01DX009 (ip), vehicle: Klucel (hydroxypropylcellulose) (HPC).
The mark [12] stands for this setting: dose: 400.0 mg/kg/injection, schedule: Q01DX009 (ip), vehicle: Klucel (hydroxypropylcellulose) (HPC).
The mark [13] stands for this setting: dose: 100.0 mg/kg/injection, schedule: Q04DX002 (ip), vehicle: Klucel (hydroxypropylcellulose) (HPC).
Where [14] appears, read: dose: 200.0 mg/kg/injection, schedule: Q04DX002 (ip), vehicle: Klucel (hydroxypropylcellulose) (HPC).
Setting [15] is: dose: 400.0 mg/kg/injection, schedule: Q04DX002 (ip), vehicle: Klucel (hydroxypropylcellulose) (HPC).

Consider `ClCCCN1CCCCC1CCl` (centres undefined), for which the T/C is, setting by setting: (dose: 3.12 mg/kg/injection, schedule: Q01DX009 (ip), vehicle: saline) 114 % of control; (dose: 6.25 mg/kg/injection, schedule: Q01DX009 (ip), vehicle: saline) 114 % of control; (dose: 6.25 mg/kg/injection, schedule: Q04DX003 (ip), vehicle: saline) 111 % of control; (dose: 12.5 mg/kg/injection, schedule: Q04DX003 (ip), vehicle: saline) 111 % of control; (dose: 25.0 mg/kg/injection, schedule: Q04DX003 (ip), vehicle: saline) 150 % of control.

Turning to `CCCCCCCCCCCCCCCCOc1ccc(Sc2ccc([N+](=O)[O-])cc2)cc1`, the T/C (dose: 400.0 mg/kg/injection, schedule: Q01DX001 (ip), vehicle: Klucel (hydroxypropylcellulose) (HPC)) was 87 % of control.

Turning to `Cc1ccc(NC(=O)N(CCCl)N=O)c(NC(=O)N(CCCl)N=O)c1`, the T/C by setting is: (dose: 30.0 mg/kg/injection, schedule: Q01DX001 (ip), vehicle: carboxymethylcellulose (CMC)) 117 % of control; (dose: 33.0 mg/kg/injection, schedule: Q01DX001 (ip), vehicle: carboxymethylcellulose (CMC)) 107 % of control; (dose: 33.0 mg/kg/injection, schedule: Q01DX009 (ip), vehicle: carboxymethylcellulose (CMC)) 108 % of control; (dose: 50.0 mg/kg/injection, schedule: Q01DX009 (ip), vehicle: carboxymethylcellulose (CMC)) 88 % of control; (dose: 75.0 mg/kg/injection, schedule: Q01DX001 (ip), vehicle: carboxymethylcellulose (CMC)) 113 % of control; (dose: 112.0 mg/kg/injection, schedule: Q01DX001 (ip), vehicle: carboxymethylcellulose (CMC)) 96 % of control.

Turning to `O=C(O)c1ccccc1Cl`, the T/C under setting [1] is 103 % of control, the T/C under setting [2] was 108 % of control and the T/C under setting [3] was 102 % of control.

As for `Cc1coc2c1[C@@H](O)[C@]1(C)[C@@H](C)CC[C@H](O)[C@]1(O)C2`, the T/C was 97 % of control under setting [4] and 95 % of control under setting [5].

With `OC1CCC2=C(C1)C1CCC2C1` (centres undefined), the T/C runs as follows: (dose: 12.5 mg/kg/injection, schedule: Q04DX003 (ip), vehicle: saline with Tween-80) 96 % of control; (dose: 25.0 mg/kg/injection, schedule: Q04DX003 (ip), vehicle: saline with Tween-80) 89 % of control; (dose: 50.0 mg/kg/injection, schedule: Q04DX003 (ip), vehicle: saline with Tween-80) 98 % of control.

On to `COC1C=COC2(C)Oc3c(C)c(O)c4c(c3C2=O)/C(=N/C2CCC(O)OC2C)C=C(NC(=O)/C(C)=C\C(=O)C2CC2C(O)C(C)C(O)C(C)C(OC(C)=O)C1C)C4=O` (centres undefined), for which the T/C under setting [6] was 95 % of control and the T/C under setting [7] is 95 % of control.

As for `O=C1C2CCCCC2C(=O)N1C1=NC=NC2=NC=NC21` (centres undefined), the T/C (dose: 100.0 mg/kg/injection, schedule: Q04DX003 (ip), vehicle: saline with Tween-80) was 98 % of control; the T/C (dose: 200.0 mg/kg/injection, schedule: Q04DX003 (ip), vehicle: saline with Tween-80) was 101 % of control; the T/C (dose: 400.0 mg/kg/injection, schedule: Q04DX003 (ip), vehicle: saline with Tween-80) was 95 % of control.

Turning to `S=c1[nH]c2cc3ccccc3cc2[nH]1`, the T/C reads like this: (dose: 75.0 mg/kg/injection, schedule: Q01DX001 (ip), vehicle: saline) 98 % of control; (dose: 150.0 mg/kg/injection, schedule: Q01DX001 (ip), vehicle: saline) 101 % of control; (dose: 300.0 mg/kg/injection, schedule: Q01DX001 (ip), vehicle: saline) 92 % of control.

Take `O=C1c2cccc(S(=O)(=O)O)c2C(=O)c2cccc(S(=O)(=O)O)c21`: the T/C is 102 % of control (dose: 50.0 mg/kg/injection, schedule: Q01DX001 (ip), vehicle: saline); 109 % of control under setting [4]; 111 % of control under setting [5]; 109 % of control (dose: 400.0 mg/kg/injection, schedule: Q01DX001 (ip), vehicle: saline).

In the case of `C=C(C)C1CCC(C)CC1O` (centres undefined), the T/C reads like this: (dose: 50.0 mg/kg/injection, schedule: Q01DX009 (ip), vehicle: saline with Tween-80) 111 % of control; under setting [8], 97 % of control; under setting [9], 108 % of control.

As to `S=C(C#Cc1ccccc1)Nc1ccccc1`, the T/C by setting is: under setting [7], 93 % of control; (dose: 200.0 mg/kg/injection, schedule: Q04DX002 (ip), vehicle: saline with Tween-80) 86 % of control.

With `CC(=O)OC1CCC2(C)C3=CCC4(C)C(C(C)/C=C\C(C)C(C)C)CCC4C34C=CC2(C1)C1C(=O)OC(=O)C14` (centres undefined), the T/C runs as follows: (dose: 25.0 mg/kg/injection, schedule: Q04DX002 (ip), vehicle: saline with Tween-80) 98 % of control; under setting [6], 90 % of control; under setting [7], 94 % of control.

As to `O=C(Nc1cccc(Cl)c1Cl)N(Cc1ccccc1)Cc1ccccc1`, the T/C runs as follows: under setting [10], 108 % of control; under setting [11], 97 % of control; under setting [12], 101 % of control.

Take `CCOC(=O)Cc1nc2ccc(C)cc2[nH]1`: the T/C by setting is: under setting [13], 100 % of control; under setting [14], 100 % of control; under setting [15], 115 % of control.

As for `COC(=O)N/N=C/c1ccc(C)cc1`, the T/C is, setting by setting: under setting [13], 108 % of control; under setting [14], 115 % of control; under setting [15], 94 % of control.

In the case of `CCCCCCCNC1=C(c2ccccc2)C(=O)C(NCCCCCCC)=C(c2ccccc2)C1=O`, the T/C is, setting by setting: (dose: 100.0 mg/kg/injection, schedule: Q01DX001 (ip), vehicle: carboxymethylcellulose (CMC)) 94 % of control; (dose: 200.0 mg/kg/injection, schedule: Q01DX001 (ip), vehicle: carboxymethylcellulose (CMC)) 96 % of control; (dose: 400.0 mg/kg/injection, schedule: Q01DX001 (ip), vehicle: carboxymethylcellulose (CMC)) 91 % of control.

Take `CC(Cc1ccccc1)C(=O)c1ccccc1` (centres undefined): the T/C (dose: 100.0 mg/kg/injection, schedule: Q01DX001 (ip), vehicle: saline with Tween-80) is 102 % of control; the T/C under setting [8] is 102 % of control; the T/C (dose: 200.0 mg/kg/injection, schedule: Q01DX001 (ip), vehicle: saline with Tween-80) is 94 % of control; the T/C under setting [9] is 97 % of control; the T/C (dose: 400.0 mg/kg/injection, schedule: Q01DX001 (ip), vehicle: saline with Tween-80) is 94 % of control; the T/C (dose: 400.0 mg/kg/injection, schedule: Q01DX009 (ip), vehicle: saline with Tween-80) is 98 % of control.

For `O=C1NCC(Nc2ccc(Br)cc2)C(=O)N1` (centres undefined), the T/C by setting is: (dose: 100.0 mg/kg/injection, schedule: Q01DX Z (ip), vehicle: methylcellulose (MC)) 96 % of control; (dose: 200.0 mg/kg/injection, schedule: Q01DX Z (ip), vehicle: methylcellulose (MC)) 94 % of control.

With `O=c1[nH]c(-c2ccccc2)nc2[nH]ncc12`, the T/C runs as follows: under setting [1], 105 % of control; under setting [2], 92 % of control; under setting [3], 87 % of control.

On to `CSc1ccccc1C(O)Cc1ccc([N+](=O)[O-])cc1` (centres undefined), for which the T/C is, setting by setting: under setting [10], 105 % of control; (dose: 100.0 mg/kg/injection, schedule: Q04DX003 (ip), vehicle: saline) 98 % of control; under setting [11], 93 % of control; (dose: 200.0 mg/kg/injection, schedule: Q04DX003 (ip), vehicle: saline) 98 % of control; under setting [12], 96 % of control; (dose: 400.0 mg/kg/injection, schedule: Q04DX003 (ip), vehicle: saline) 95 % of control.

Values taken from PubChem BioAssay AID248 (DTP/NCI, 2004).
